Tested on: d-U937 cells
Experiment: Cell viability: MTT assay
Assay type: cell-based, human
Details: 1 μg/mL
Method: Differentiated U937 cells were pre-incubated with each test compound (final concentration 1 μg/mL or 10 μg/mL in 200 μL media indicated below) under two protocols: the first for 4 hr in 5% FCS RPMI1640 media and the second in 10% FCS RPMI1640 media for 24 h. The supernatant was replaced with new media (200 μL) and MTT stock solution (10 μL, 5 mg/mL) was added to each well. After incubation for 1 hr the media were removed, DMSO (200 μL) was added to each well and the plates were shaken lightly for 1 hr prior to reading the absorbance at 550 nm. The percentage loss of cell viability was calculated for each well relative to vehicle (0.5% DMSO) treatment. Consequently an apparent increase in cell viability for drug treatment relative to vehicle is tabulated as a negative percentage.

SMILES	MTT Assay Cell viability at time point in d-U937 Cells 4 h	MTT Assay Cell viability at time point in d-U937 Cells 24 h
Cc1ccc(-n2nc(C(C)(C)C)cc2NC(=O)Nc2ccc(Oc3ccnc(Nc4ccc(Cl)cc4C)n3)c3ccccc23)cc1 [Example 18, 1-(3-(tert-butyl)-1-(p-tolyl)-1H-pyrazol-5-yl)-3-(4-((2-((4-chloro-2-methylphenyl)amino)pyrimidin-4-yl)oxy)naphthalen-1-yl)urea]	−ve (−ve and +ve indicate the value is below and above respectively, the no significant effect threshold defined as 30% inhibition at 1 μg/mL at the time point indicated)	−ve (−ve and +ve indicate the value is below and above respectively, the no significant effect threshold defined as 30% inhibition at 1 μg/mL at the time point indicated)
Cc1ccc(-n2nc(C(C)(C)C)cc2NC(=O)Nc2ccc(Oc3ccnc(Nc4ccccc4Cl)n3)c3ccccc23)cc1 [Example 19, 1-(3-(tert-butyl)-1-(p-tolyl)-1H-pyrazol-5-yl)-3-(4-((2-((2-chlorophenyl)amino)pyrimidin-4-yl)oxy)naphthalen-1-yl)urea]	−ve (−ve and +ve indicate the value is below and above respectively, the no significant effect threshold defined as 30% inhibition at 1 μg/mL at the time point indicated)	−ve (−ve and +ve indicate the value is below and above respectively, the no significant effect threshold defined as 30% inhibition at 1 μg/mL at the time point indicated)
Cc1ccc(-n2nc(C(C)(C)C)cc2NC(=O)Nc2ccc(Oc3ccnc(Nc4ccccc4C(C)C)n3)c3ccccc23)cc1 [Example 20, 1-(3-(tert-butyl)-1-(p-tolyl)-1H-pyrazol-5-yl)-3-(4-((2-((2-isopropylphenyl)amino)pyrimidin-4-yl)oxy)naphthalen-1-yl)urea]	−ve (−ve and +ve indicate the value is below and above respectively, the no significant effect threshold defined as 30% inhibition at 1 μg/mL at the time point indicated)	−ve (−ve and +ve indicate the value is below and above respectively, the no significant effect threshold defined as 30% inhibition at 1 μg/mL at the time point indicated)
Cc1ccc(-n2nc(C(C)(C)C)cc2NC(=O)Nc2ccc(Oc3ccnc(Nc4ccccc4C)n3)c3ccccc23)cc1 [Example 21, 1-(3-(tert-butyl)-1-(p-tolyl)-1H-pyrazol-5-yl)-3-(4-((2-(o-tolylamino)pyrimidin-4-yl)oxy)naphthalen-1-yl)urea]	−ve (−ve and +ve indicate the value is below and above respectively, the no significant effect threshold defined as 30% inhibition at 1 μg/mL at the time point indicated)	−ve (−ve and +ve indicate the value is below and above respectively, the no significant effect threshold defined as 30% inhibition at 1 μg/mL at the time point indicated)
CCOc1ccc(Nc2nccc(Oc3ccc(NC(=O)Nc4cc(C(C)(C)C)nn4-c4ccc(C)cc4)c4ccccc34)n2)cc1 [Example 22, 1-(3-(tert-butyl)-1-(p-tolyl)-1H-pyrazol-5-yl)-3-(4-((2-((4-ethoxyphenyl)amino)pyrimidin-4-yl)oxy)naphthalen-1-yl)urea]	−ve (−ve and +ve indicate the value is below and above respectively, the no significant effect threshold defined as 30% inhibition at 1 μg/mL at the time point indicated)	−ve (−ve and +ve indicate the value is below and above respectively, the no significant effect threshold defined as 30% inhibition at 1 μg/mL at the time point indicated)
Cc1ccc(-n2nc(C(C)(C)C)cc2NC(=O)Nc2ccc(Oc3ccnc(Nc4ccc(F)cc4)n3)c3ccccc23)cc1 [Example 23, 1-(3-(tert-butyl)-1-(p-tolyl)-1H-pyrazol-5-yl)-3-(4-((2-((4-fluorophenyl)amino)pyrimidin-4-yl)oxy)naphthalen-1-yl)urea]	−ve (−ve and +ve indicate the value is below and above respectively, the no significant effect threshold defined as 30% inhibition at 1 μg/mL at the time point indicated)	−ve (−ve and +ve indicate the value is below and above respectively, the no significant effect threshold defined as 30% inhibition at 1 μg/mL at the time point indicated)
Cc1ccc(-n2nc(C(C)(C)C)cc2NC(=O)Nc2ccc(Oc3ccnc(Nc4ccc(O)cc4C)n3)c3ccccc23)cc1 [Example 24, 1-(3-(tert-butyl)-1-(p-tolyl)-1H-pyrazol-5-yl)-3-(4-((2-((4-hydroxy-2-methylphenyl)amino)pyrimidin-4-yl)oxy)naphthalen-1-yl)urea]	−ve (−ve and +ve indicate the value is below and above respectively, the no significant effect threshold defined as 30% inhibition at 1 μg/mL at the time point indicated)	−ve (−ve and +ve indicate the value is below and above respectively, the no significant effect threshold defined as 30% inhibition at 1 μg/mL at the time point indicated)
COc1cc(Nc2nccc(Oc3ccc(NC(=O)Nc4cc(C(C)(C)C)nn4-c4ccc(C)cc4)c4ccccc34)n2)ccc1O [Example 25, 1-(3-(tert-butyl)-1-(p-tolyl)-1H-pyrazol-5-yl)-3-(4-((2-((4-hydroxy-3-methoxyphenyl)amino)pyrimidin-4-yl)oxy)naphthalen-1-yl)urea]	−ve (−ve and +ve indicate the value is below and above respectively, the no significant effect threshold defined as 30% inhibition at 1 μg/mL at the time point indicated)	−ve (−ve and +ve indicate the value is below and above respectively, the no significant effect threshold defined as 30% inhibition at 1 μg/mL at the time point indicated)
Cc1ccc(-n2nc(C(C)(C)C)cc2NC(=O)Nc2ccc(Oc3ccnc(Nc4ccc(C)c(O)c4)n3)c3ccccc23)cc1 [Example 26, 1-(3-(tert-butyl)-1-(p-tolyl)-1H-pyrazol-5-yl)-3-(4-((2-((3-hydroxy-4-methylphenyl)amino)pyrimidin-4-yl)oxy)naphthalen-1-yl)urea]	−ve (−ve and +ve indicate the value is below and above respectively, the no significant effect threshold defined as 30% inhibition at 1 μg/mL at the time point indicated)	−ve (−ve and +ve indicate the value is below and above respectively, the no significant effect threshold defined as 30% inhibition at 1 μg/mL at the time point indicated)
COc1ccc(Nc2nccc(Oc3ccc(NC(=O)Nc4cc(C(C)(C)C)nn4-c4ccc(C)cc4)c4ccccc34)n2)cc1OC [Example 27, 1-(3-(tert-butyl)-1-(p-tolyl)-1H-pyrazol-5-yl)-3-(4-((2-((3,4-dimethoxyphenyl)amino)pyrimidin-4-yl)oxy)naphthalen-1-yl)urea]	+ve (−ve and +ve indicate the value is below and above respectively, the no significant effect threshold defined as 30% inhibition at 1 μg/mL at the time point indicated)	−ve (−ve and +ve indicate the value is below and above respectively, the no significant effect threshold defined as 30% inhibition at 1 μg/mL at the time point indicated)
COc1ccc(Nc2nccc(Oc3ccc(NC(=O)Nc4cc(C(C)(C)C)nn4-c4ccc(C)cc4)c4ccccc34)n2)cc1Cl [Example 28, 1-(3-(tert-butyl)-1-(p-tolyl)-1H-pyrazol-5-yl)-3-(4-((2-((3-chloro-4-methoxyphenyl)amino)pyrimidin-4-yl)oxy)naphthalen-1-yl)urea]	−ve (−ve and +ve indicate the value is below and above respectively, the no significant effect threshold defined as 30% inhibition at 1 μg/mL at the time point indicated)	−ve (−ve and +ve indicate the value is below and above respectively, the no significant effect threshold defined as 30% inhibition at 1 μg/mL at the time point indicated)
Cc1ccc(-n2nc(C(C)(C)C)cc2NC(=O)Nc2ccc(Oc3ccnc(Nc4ccc(O)c(F)c4)n3)c3ccccc23)cc1 [Example 29, 1-(3-(tert-butyl)-1-(p-tolyl)-1H-pyrazol-5-yl)-3-(4-((2-((3-fluoro-4-hydroxyphenyl)amino)pyrimidin-4-yl)oxy)naphthalen-1-yl)urea]	+ve (−ve and +ve indicate the value is below and above respectively, the no significant effect threshold defined as 30% inhibition at 1 μg/mL at the time point indicated)	−ve (−ve and +ve indicate the value is below and above respectively, the no significant effect threshold defined as 30% inhibition at 1 μg/mL at the time point indicated)
Cc1ccc(-n2nc(C(C)(C)C)cc2NC(=O)Nc2ccc(Oc3ccnc(Nc4ccc(O)cc4F)n3)c3ccccc23)cc1 [Example 30, 1-(3-(tert-butyl)-1-(p-tolyl)-1H-pyrazol-5-yl)-3-(4-((2-((2-fluoro-4-hydroxyphenyl)amino)pyrimidin-4-yl)oxy)naphthalen-1-yl)urea]	−ve (−ve and +ve indicate the value is below and above respectively, the no significant effect threshold defined as 30% inhibition at 1 μg/mL at the time point indicated)	−ve (−ve and +ve indicate the value is below and above respectively, the no significant effect threshold defined as 30% inhibition at 1 μg/mL at the time point indicated)

Reference: patent US9993478B2, “1-pyrazolyl-3-(4-((2-anilinopyrimidin-4-yl) oxy) napththalen-1-yl) ureas as P38 MAP knase inhibitors” (Respivert Ltd., priority 2011, dated 2018)
